Like-named read-outs stand apart in the source and are kept apart here.
Assays:
[1] = test system: delay of discharging time induced by loperamide in mice; assay: Loperamide induced constipation model (glass bead discharging time); type: in vivo; conditions: Mus musculus, read-out: ED50 (amount which suppresses 50% of the delay of discharging time induced by loperamide)
Method: It has been known that loperamide as a μ opioid receptor agonist causes convulsive contraction in intestinal tracts. Thus, a delay in the intestinal transport ability due to loperamide is thought as a constipation IBS model.
Mice (Slc:ddY, five-week old, male) fasted from the previous evening of the experiment. On the day of the experiment, the mice were acclimatized to cages for measurement for 1 hour or more, and 0.3 mg/kg of loperamide was administered subcutaneously. After 30 minutes, a compound to be tested was administered orally, ether anesthesia was applied to the mice immediately thereafter, glass beads having diameter of 3 mm were inserted to 2 cm from anus. The mice were returned to the cages for measurement, and the time from waking to discharging of the glass beads was measured. Furthermore, the compound to be tested was dissolved into 10% DMSO, 10% cremophor, and 80% distillated water.
As a result, it has been recognized that there was a delay in the beads discharging time of the loperamide administration group (vehicle group) in comparison with the loperamide non-administration group (control group).
ED50 values (amount of the compound to be tested which suppresses 50% of the delay of discharging time induced by loperamide) of some of the compounds of the formula (I) are shown in Table 3. In this connection, comparative compound 1 is the same compound as comparative compound 1 in Test Example 4.

gastric emptying of rats = assay: Activity to gastric emptying of TRPA1 agonist (phenol red, rats); type: in vivo; conditions: Rattus norvegicus, read-out: ED50 (amount which suppresses 50% of gastric emptying)
Text: When EC cell is stimulated by content of a gastrointestinal tract, 5-HT is secreted. The secreted 5-HT promotes the secretion or motility through a 5-HT receptor present in intestinal nerve plexus or gastrointestinal smooth muscle. The secreted 5-HT is instantly taken into a cell by its specific transporter, and is metabolized by […]. Thus, while it is considerably difficult to directly measure the secreted 5-HT concentration, it has been known that gastric emptying is delayed as a physiological activity through 5-HT in rodents. In order to verify in vivo activity through 5-HT of the compound to be tested, activity to gastric emptying of rats by various TRPA1 agonists was studied.
In the experiment, male wistar rats (body weight 290 to 360 g) were used. The animals were purchased from Japan SLC (Shizuoka). The animals were allowed to drink water freely under a constitutive environment.
5 minutes after the medicine was orally administered, 0.05% phenol red solution (1.5 mL) was orally administered. After 15 minutes, rats were put painlessly to death by cervical vertebral dislocation, their stomachs were exenterated, and phenol red was eluted with 0.1M aqueous NaOH solution (5 mL) from the exenterated stomachs. 20% aqueous trichloroacetic acid solution (0.1 mL) was added to the NaOH solution (0.5 mL), followed by stirring and centrifugation at 15,000 rpm, at 4° C., for 10 minutes. 0.5M aqueous NaOH solution (0.2 mL) was added to the supernatant (0.05 mL), followed by stirring, and absorbance at 560 nm was measured using an absorption spectrometer (spectrometer spectramax M2; Molecular Devices, CA, USA).
A gastric emptying was calculated by the following calculating formula.
Gastric emptying (%)=100−(A/B)×100
A: amount of phenol red remaining in stomach
B: amount of phenol red remaining in stomach just after administering phenol red
ED50 values (amount of the compound to be tested which suppresses 50% of gastric emptying, with respect to the control animals without administering the compound to be tested) of some of the compounds of the formula (I) are shown in Table 2. In this connection, comparative compound 1 and comparative compound 2 are (3E)-1-methyl-3-(2-oxopropyridene)-1,3-dihydro-2H-indol-2-one, and (3E)-3-(2-oxopropyridene)-1-prop-2-in-1-yl-1,3-dihydro-2H-indol-2-one described in Non Patent Document 4 above, and has the following chemical structures, respectively.

human TRPA1 = target: T1, human TRPA1 (Homo sapiens, UniProt O75762, K186N/R3C/R58T); assay: Measurement of TRPA1 activation activity (intracellular calcium, FLIPR, HEK293 cells stably expressing human TRPA1); type: cell-based; conditions: change of intracellular calcium concentration
T1 construct: expressed in transfected cells; pcDNA3.1(+) vector)
T1 sequence (O75762 whole entry R3C/R58T/K186N): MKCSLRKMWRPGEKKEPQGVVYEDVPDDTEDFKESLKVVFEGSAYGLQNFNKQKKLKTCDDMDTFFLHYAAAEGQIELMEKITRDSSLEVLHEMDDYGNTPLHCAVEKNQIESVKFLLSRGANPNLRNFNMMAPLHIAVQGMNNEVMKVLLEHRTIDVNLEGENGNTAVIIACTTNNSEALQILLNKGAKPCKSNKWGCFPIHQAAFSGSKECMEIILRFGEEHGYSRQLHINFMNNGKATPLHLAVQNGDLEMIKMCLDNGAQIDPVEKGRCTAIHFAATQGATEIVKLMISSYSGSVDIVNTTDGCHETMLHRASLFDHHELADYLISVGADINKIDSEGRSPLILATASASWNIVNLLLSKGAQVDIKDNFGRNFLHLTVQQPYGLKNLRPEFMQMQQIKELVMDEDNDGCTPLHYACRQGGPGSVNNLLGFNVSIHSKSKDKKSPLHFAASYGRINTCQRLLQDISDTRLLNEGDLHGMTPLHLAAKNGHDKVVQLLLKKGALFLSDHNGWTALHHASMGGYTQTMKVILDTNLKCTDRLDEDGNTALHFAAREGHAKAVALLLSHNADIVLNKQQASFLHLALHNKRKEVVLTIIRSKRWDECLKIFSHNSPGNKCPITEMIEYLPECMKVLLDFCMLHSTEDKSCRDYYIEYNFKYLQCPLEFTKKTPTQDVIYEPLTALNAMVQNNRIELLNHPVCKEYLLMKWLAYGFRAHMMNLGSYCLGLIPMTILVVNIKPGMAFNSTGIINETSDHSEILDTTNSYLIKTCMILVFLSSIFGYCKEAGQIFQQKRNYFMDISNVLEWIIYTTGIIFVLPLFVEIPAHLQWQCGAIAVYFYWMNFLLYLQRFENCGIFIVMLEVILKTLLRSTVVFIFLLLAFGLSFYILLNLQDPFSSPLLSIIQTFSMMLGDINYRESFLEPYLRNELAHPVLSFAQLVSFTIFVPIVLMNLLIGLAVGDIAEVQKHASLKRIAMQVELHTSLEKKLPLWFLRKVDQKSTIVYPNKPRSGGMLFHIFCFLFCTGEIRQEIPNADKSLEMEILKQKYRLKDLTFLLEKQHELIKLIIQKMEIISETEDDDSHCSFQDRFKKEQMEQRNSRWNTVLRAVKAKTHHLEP
Method: 10 ng of Human brain mRNA (Clontech Co.) was treated with DNase, and then was reverse transcribed using kit for reverse transcription-polymerase chain reaction (RT-PCR) (SUPERSCRIPT First-Strand Synthesis System for RT-PCR; Invitrogen Co.) to synthesize the first strand cDNA. PCR using a hot start method was performed using the first strand cDNA as a template and Taq DNA polymerase (LA Taq DNA polymerase; TAKARA SHUZO). The PCR was performed using oligonucleotides consisting of the nucleotide sequences, represented by sequence number 2 as a sense primer and sequence number 3 as an antisense primer, in which firstly, heat denaturation was performed at 98° C. (1 minute), and then a cycle of 98° C. (15 seconds)/56° C. (30 seconds)/72° C. (5 minutes) was repeated 35 times. As a result, a DNA fragment of about 3.3 kbp was amplified.
The DNA fragment was cloned to pCR-TOPO vector using a cloning kit (TOPO XL PCR Cloning Kit; Invitrogen). The obtained plasmid DNA was digested with restriction enzymes KpnI and HindIII, and then was cloned using plasmid pcDNA 3.1(+)(Invitrogen). In this connection, the plasmid pcDNA 3.1(+) has a promoter sequence derived from cytemegalovirus, and can be used in order to express a protein in animal cells.
The nucleotide sequences of the obtained clones were analyzed using DNA sequencer (ABI3700 DNA Sequencer; Applied Biosystems) by dideoxyterminator method, and the nucleotide sequence represented by sequence number 1 was obtained. Furthermore, when these sequences were translated to amino acid sequences, the amino acid sequence represented by sequence number 1 was obtained.
After constructing the expression vector of the human TRPA1 gene, selection by G418 was performed from the HEK293 cells which temporarily expressed TRPA1 by transfection operation to obtain cells stably expressing TRPA1. The above operation was performed according to known methods (experimental medicine supplementary volume, “Cultivation Cell Experimental Methods for Molecular Biology Study” published by Toshio Kuroki, Namho Hue and Kazuhiro Chida, 1995, Yodosha).
In order to measure the change of the intracellular calcium concentration in the cells stably expressing the human TRPA1, the change of the intracellular calcium concentration when a compound to be tested was added was measured using FLIPR (Molecular Device).
In order to measure the change of the intracellular calcium concentration with FLIPR, the following pretreatment was performed. First of all, assay buffer was prepared which was for adding fluorescent pigment Fluo4-AM (DOJIN) to the cells or washing the cells just before performing FLIPR assay. To a solution (hereinafter, HBSS/HEPES solution) where 20 mL of 1M HEPES (pH 7.4; Invitrogen) was added to 1000 mL of a physiological saline buffer (Hank's Balanced Salt Solution; HBSS) (Invitrogen), was added 10 mL of a solution where 710 mg of probenecid (Sigma) was dissolved into 5 mL of 1M aqueous NaOH solution and 5 mL of HBSS/HEPES solution was further added and mixed, and the assay buffer was thus prepared. Then, 50 μg of Fluo4-AM was dissolved into 22 μL of DMSO (DOJIN), the same amount of 20% pluronic acid (Molecular Probes) was added thereto and mixed, and the mixture was added to the 10.6 mL of the assay buffer where 105 μL of fetal bovine serum was added, to prepare a fluorescent pigment solution. The medium of the cells stably expressing TRPA1 was removed, 100 μL per well of the fluorescent pigment solution was dispensed immediately, followed by cultivation in a CO2 cultivator for 1 hour, and the fluorescent pigment was soaked in the cells. The cells after cultivation were washed using the assay buffer, followed by being set in FLIPR. Furthermore, a test sample, which was added to the cells stably expressing TRPA1, was prepared by using the assay buffer, and at the same time, was set in FLIPR. […]

Cytochrome P450(2D6) = Cytochrome P450(2D6) (Homo sapiens, UniProt P10635); assay: Cytochrome P450(2D6) enzyme inhibition test; type: in vitro ADME; conditions: CYP2D6, fluorescent substrate 1.5 μmol/L, 37° C., 20 minutes
Sequence of Cytochrome P450(2D6) (P10635 whole entry): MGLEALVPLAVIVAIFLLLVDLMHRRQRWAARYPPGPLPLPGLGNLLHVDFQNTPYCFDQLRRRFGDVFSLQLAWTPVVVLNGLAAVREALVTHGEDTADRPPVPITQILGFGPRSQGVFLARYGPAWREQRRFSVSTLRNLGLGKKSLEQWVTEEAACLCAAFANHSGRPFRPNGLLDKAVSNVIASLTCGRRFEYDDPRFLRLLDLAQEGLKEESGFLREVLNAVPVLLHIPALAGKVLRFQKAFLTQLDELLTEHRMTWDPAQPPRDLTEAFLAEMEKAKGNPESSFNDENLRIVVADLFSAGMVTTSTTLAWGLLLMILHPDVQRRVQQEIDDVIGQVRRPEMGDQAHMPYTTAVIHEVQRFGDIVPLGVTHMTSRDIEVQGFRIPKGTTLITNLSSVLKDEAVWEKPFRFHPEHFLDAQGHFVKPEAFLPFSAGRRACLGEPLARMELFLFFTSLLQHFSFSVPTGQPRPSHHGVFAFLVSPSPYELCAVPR
Method: The experiment was performed in accordance with the method of Crespi et al. (Analytical Biochemistry, 248, 188-190, 1997).
As a substrate, 3-[2-(N,N-diethyl-N-methylamino)ethyl]-7-methoxy-4-methyl coumarine (1.5 μmol/L) a compound to be tested (3.1×10^−7 to 2×10^−5 M) and an enzyme (2.5×10^−8 M) were incubated at 37° C. for 20 minutes in total of […] of 100 mM phosphorous buffer (pH=7.4) including 8.2 mM NADP+, 0.41 mM glucose-6-phosphate, 0.41 mM MgCl2 and 0.4 Units/mL glucose-6-phosphate dehydrogenase, using 96 well plates. Then, 0.5 M aqueous 2-amino-2-hydroxymethyl-1,3-propandiol solution containing 80% acetonitrile was added to stop the reaction, fluorescence intensity (excitation wavelength; 390 nm, fluorescent wavelength; 460 nm) was measured with a fluorescent plate reader. An inhibition ratio was calculated with the following formula, and the test compound concentration when the inhibition ratio is 50% (IC50) was obtained.
C1: fluorescence intensity in the presence of the test compound and enzyme at know concentrations, and the substrate
C0: fluorescence intensity in the presence of the enzyme and substrate, without the test compound
B1: fluorescence intensity of blank well

[2] = mice (Slc:ddY, male), 0.3 mg/kg loperamide subcutaneously, compound orally
[3] = male wistar rats, oral administration, versus control animals

| Structure (SMILES) | EC50 (human TRPA1) | IC50 (Cytochrome P450(2D6)) | melting point | ED50 [1, 2] | ED50 (gastric emptying of rats; [3]) | ED50 (gastric emptying of rats; po) | ED50 [1] |
| --- | --- | --- | --- | --- | --- | --- | --- |
| CC(=O)/C=C1/C(=O)N(C)c2ccccc21 [comparative compound 1, (3E)-1-methyl-3-(2-oxopropyridene)-1,3-dihydro-2H-indol-2-one, reference compound] |  |  |  | 2.5 mg/kg | 2.8 mg/kg |  |  |
| NC(=O)/C=C1/C(=O)N(CC2CCCC2)c2c(F)cccc21 [Example 29] | 660 nM |  |  |  |  |  |  |
| CN(C)C(=O)/C=C1/C(=O)N(CC2CCCC2)c2c(F)cccc21 [Example 43, (2E)-2-[1-(cyclopentylmethyl)-7-fluoro-2-oxo-1,2-dihydro-3H-indol-3-ylidene]-N,N-dimethylacetamide] | 3760 nM | > 25000 nM | 51 to 53 °C |  |  |  |  |
| CCC(CC)CN1C(=O)/C(=C/C(=O)N2CCOCC2)c2cccc(F)c21 [Example 45, (3E)-1-(2-ethylbutyl)-7-fluoro-3-(2-morpholin-4-yl-2-oxoethylidene)-1,3-dihydro-2H-indol-2-one] | 1290 nM | 18000 nM | 102 to 104 °C |  |  | 0.57 mg/kg |  |
| CC(C)CN1C(=O)/C(=C/C(=O)O)c2ccccc21 [Example 13] |  |  |  | 0.4 mg/kg | 0.98 mg/kg |  |  |
| CC(C)CN1C(=O)/C(=C/C(=O)O)c2cccc(Cl)c21 [Example 31, (2E)-(7-chloro-1-isobutyl-2-oxo-1,2-dihydro-3H-indol-3-ylidene)acetic acid] | 610 nM |  | 142 to 144 °C | 0.24 mg/kg |  |  |  |
| O=C(O)/C=C1/C(=O)N(Cc2ccccc2)c2ccc(F)cc21 [Example 17, (2E)-(1-benzyl-5-fluoro-2-oxo-1,2-dihydro-3H-indol-3-ylidene)acetic acid] | 4450 nM | > 20000 nM | 177 to 179 °C |  | 0.31 mg/kg |  |  |
| O=C(O)/C=C1/C(=O)N(CC2CCC2)c2ccccc21 [Example 24] |  |  |  |  |  | 0.53 mg/kg | 0.27 mg/kg |
| CC(C)CN1C(=O)/C(=C/C(=O)O)c2cccc(F)c21 [Example 1, (2E)-(7-fluoro-1-isobutyl-2-oxo-1,2-dihydro-3H-indol-3-ylidene)acetic acid] | 4270 nM | > 20000 nM |  |  | 0.13 mg/kg |  |  |

Further lines, with some results ahead:

| EC50 (human TRPA1) | IC50 (Cytochrome P450(2D6)) | melting point | Structure (SMILES) | ED50 [1, 2] | ED50 (gastric emptying of rats; [3]) | ED50 (gastric emptying of rats; po) | ED50 [1] |
| --- | --- | --- | --- | --- | --- | --- | --- |
| 830 nM |  | 142 to 144 °C | CC(C)CCN1C(=O)/C(=C/C(=O)O)c2cccc(F)c21 [Example 49, (2E)-[7-fluoro-1-(3-methylbutyl)-2-oxo-1,2-dihydro-3H-indol-3-ylidene]acetic acid] |  |  |  |  |
| 1160 nM | > 50000 nM | 166 to 168 °C | O=C(O)/C=C1/C(=O)N(CC2CCC2)c2c(F)cccc21 [Example 32, (2E)-[1-(cyclobutylmethyl)-7-fluoro-2-oxo-1,2-dihydro-3H-indol-3-ylidene]acetic acid] |  | 0.21 mg/kg |  |  |
| 1300 nM |  |  | O=C(/C=C1/C(=O)N(CC2CCCC2)c2c(F)cccc21)N1CCC1 [Example 33] |  |  |  |  |
| 1010 nM |  | 137 to 139 °C | CC[C@H](C)CN1C(=O)/C(=C/C(=O)O)c2cccc(F)c21 [Example 47, (2E)-{7-fluoro-1-[(2S)-2-methylbutyl]-2-oxo-1,2-dihydro-3H-indol-3-ylidene}acetic acid] |  | 0.61 mg/kg |  |  |
|  | > 50000 nM | 171 to 173 °C | O=C(O)/C=C1/C(=O)N(CC2CC2)c2c(F)cccc21 [Example 37, (2E)-[1-(cyclopropylmethyl)-7-fluoro-2-oxo-1,2-dihydro-3H-indol-3-ylidene]acetic acid] |  |  |  |  |

Reference: US20110009379A1, “INDOLINONE COMPOUND” (ASTELLAS PHARMA INC., priority 2008, published 2011)
